The source of these data is ChEMBL document CHEMBL1153474, “Novel tricyclic antagonists of the prostaglandin D2 receptor DP2 with efficacy in a murine model of allergic rhinitis” (Bioorg Med Chem Lett, 2009).

Molecules are shown by their SMILES. Active and inactive are the calls of the source. The rule behind the calls is not given here.

The target of series [1] is T1, Prostaglandin D2 receptor 2 (Homo sapiens, UniProt Q9Y5Y4).
T1 sequence (Q9Y5Y4 whole entry): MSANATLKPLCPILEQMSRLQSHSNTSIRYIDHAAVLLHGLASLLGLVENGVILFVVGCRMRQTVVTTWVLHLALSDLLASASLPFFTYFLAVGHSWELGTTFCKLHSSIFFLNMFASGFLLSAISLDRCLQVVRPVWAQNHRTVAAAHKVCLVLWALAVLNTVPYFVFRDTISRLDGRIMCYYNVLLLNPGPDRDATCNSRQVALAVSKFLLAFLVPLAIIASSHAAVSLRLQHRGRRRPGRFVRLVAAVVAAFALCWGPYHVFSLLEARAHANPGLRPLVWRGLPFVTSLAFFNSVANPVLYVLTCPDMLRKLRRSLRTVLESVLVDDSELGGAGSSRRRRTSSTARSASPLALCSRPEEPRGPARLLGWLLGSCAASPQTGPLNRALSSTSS
Description: Displacement of [3H]PGD2 from human prostaglandin D2 receptor. A general note: In a radioligand displacement assay an active substance lowers the binding of a labelled ligand.

Series [2] has as its target T1, Prostaglandin D2 receptor 2. Description: Displacement of [3H]PGD2 from human prostaglandin D2 receptor in presence of human serum albumin.
Series [3] concerns the target T2, Prostaglandin D2 receptor (Homo sapiens, UniProt Q13258).
T2 sequence (Q13258 whole entry): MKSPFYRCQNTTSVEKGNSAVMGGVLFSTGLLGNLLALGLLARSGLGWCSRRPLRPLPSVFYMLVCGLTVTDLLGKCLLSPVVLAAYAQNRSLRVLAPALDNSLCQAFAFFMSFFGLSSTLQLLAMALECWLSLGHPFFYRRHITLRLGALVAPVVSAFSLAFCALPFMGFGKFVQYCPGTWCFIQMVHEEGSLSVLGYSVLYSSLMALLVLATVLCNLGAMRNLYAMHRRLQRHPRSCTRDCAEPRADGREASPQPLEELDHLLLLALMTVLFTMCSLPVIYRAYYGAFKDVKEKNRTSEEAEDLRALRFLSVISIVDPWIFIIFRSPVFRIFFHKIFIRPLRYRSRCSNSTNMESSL
The experiment in a line: Displacement of [3H]PGD2 from […] in human platelet membrane. Type of series: cell membranes.

In the next series the target is Cytochrome P450 2D6 (Homo sapiens, UniProt P10635). Description: Inhibition of human CYP2D6. It counts as ADME.
The next series has as its target T3, Thromboxane A2 receptor (Homo sapiens, UniProt P21731).
T3 sequence (P21731 whole entry): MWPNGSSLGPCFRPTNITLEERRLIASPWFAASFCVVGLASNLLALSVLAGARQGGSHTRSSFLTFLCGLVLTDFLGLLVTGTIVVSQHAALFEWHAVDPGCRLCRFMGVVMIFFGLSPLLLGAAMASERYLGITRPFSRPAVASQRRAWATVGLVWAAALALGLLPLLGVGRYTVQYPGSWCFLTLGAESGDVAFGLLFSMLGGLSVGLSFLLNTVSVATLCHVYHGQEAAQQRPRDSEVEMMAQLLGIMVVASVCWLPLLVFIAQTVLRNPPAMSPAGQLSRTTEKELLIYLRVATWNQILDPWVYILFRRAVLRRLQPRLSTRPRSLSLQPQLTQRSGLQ
Description: Displacement of [3H]SQ-29548 from thromboxane receptor in human platelet membrane. It counts as cell membranes.

The target in a further series is Cytochrome P450 2C9 (Homo sapiens, UniProt P11712). Description: Inhibition of human CYP2C9. It counts as ADME.
The target of the next series is Prostacyclin receptor (Homo sapiens, UniProt P43119). Description: Displacement of [3H]iloprost from human prostacyclin receptor expressed in human 293 cell membrane. It counts as cell membranes.
Another series concerns Blood. The experiment in a line: Inhibition of eosinophil […] in human whole blood assessed as change in morphology after 4 mins using flow cytometry by leukocyte shape change assay. Type of series: functional, tissue-based. A general note: Flow cytometry measures light scatter and fluorescence of single cells or particles in a stream.
Series [4] is described as follows: Cmax in BALB/c mouse at 10 mg/kg, po administered once daily for 3 days measured after 1 hr. Type of series: ADME, organism-based. Set-up: dose 10 mg/kg, route oral. The settings on record: in vivo.
Series [5] addresses T4, Cytochrome P450 3A4 (Homo sapiens, UniProt P08684). Description: Induction of CYP3A4 activity in cryopreserved human hepatocytes at 10 uM using midazolam as substrate after 2 days relative to rifampicin. The conditions noted are these: 48 h.
Series [6] has as its system Mus musculus. Description: Reduction of ovalbumin-induced increase in nasal rubs in BALB/c mouse at 10 mg/kg, po once daily for 3 days administered 20 days after ip challenge with ovalbumin followed by intranasal ovalbumin challenge 1 hr post drug dose measured after 8 mins. Type of series: functional, organism-based. Also noted: dose 10 mg/kg.
In series [7] the test system is Mus musculus. The experiment in a line: Reduction of ovalbumin-induced increase in sneezes in BALB/c mouse at 10 mg/kg, po once daily for 3 days administered 20 days after ip challenge with ovalbumin followed by intranasal ovalbumin challenge 1 hr post drug dose measured after 8 mins. Type of series: functional, organism-based. Set-up: dose 10 mg/kg.
Series [8] concerns the target T4, Cytochrome P450 3A4. The experiment in a line: Inhibition of human CYP3A4. Type of series: ADME.
Series [9] in a line: Cmin in BALB/c mouse at 10 mg/kg, po administered once daily for 3 days measured after 8 hrs. Type of series: ADME, organism-based. Also noted: dose 10 mg/kg, route oral. The conditions noted are these: in vivo, read-out: Cmin.

Chain of Cytochrome P450 2D6 (P10635 whole entry): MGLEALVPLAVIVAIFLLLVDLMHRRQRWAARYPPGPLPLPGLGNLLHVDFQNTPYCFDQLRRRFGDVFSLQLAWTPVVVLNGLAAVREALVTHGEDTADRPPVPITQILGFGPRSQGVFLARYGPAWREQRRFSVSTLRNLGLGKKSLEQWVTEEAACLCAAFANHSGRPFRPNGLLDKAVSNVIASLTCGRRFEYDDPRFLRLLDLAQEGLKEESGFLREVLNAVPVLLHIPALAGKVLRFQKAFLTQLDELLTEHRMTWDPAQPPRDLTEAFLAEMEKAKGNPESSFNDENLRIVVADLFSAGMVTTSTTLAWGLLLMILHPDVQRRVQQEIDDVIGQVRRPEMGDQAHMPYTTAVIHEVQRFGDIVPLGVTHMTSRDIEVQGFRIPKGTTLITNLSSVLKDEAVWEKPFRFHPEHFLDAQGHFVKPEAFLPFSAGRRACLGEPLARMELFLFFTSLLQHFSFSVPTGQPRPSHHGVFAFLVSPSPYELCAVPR
Chain of Prostacyclin receptor (P43119 whole entry): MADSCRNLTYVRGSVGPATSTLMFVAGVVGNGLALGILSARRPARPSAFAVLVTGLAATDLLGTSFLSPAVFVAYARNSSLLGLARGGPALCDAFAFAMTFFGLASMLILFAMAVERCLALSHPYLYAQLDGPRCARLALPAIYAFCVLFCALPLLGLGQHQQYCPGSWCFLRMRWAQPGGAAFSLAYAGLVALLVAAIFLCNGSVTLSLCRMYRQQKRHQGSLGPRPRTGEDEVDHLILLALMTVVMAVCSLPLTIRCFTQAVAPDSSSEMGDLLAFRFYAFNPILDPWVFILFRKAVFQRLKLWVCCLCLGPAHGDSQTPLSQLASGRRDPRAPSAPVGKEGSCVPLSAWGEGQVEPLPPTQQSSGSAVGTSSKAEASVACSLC
T4 sequence (P08684 whole entry): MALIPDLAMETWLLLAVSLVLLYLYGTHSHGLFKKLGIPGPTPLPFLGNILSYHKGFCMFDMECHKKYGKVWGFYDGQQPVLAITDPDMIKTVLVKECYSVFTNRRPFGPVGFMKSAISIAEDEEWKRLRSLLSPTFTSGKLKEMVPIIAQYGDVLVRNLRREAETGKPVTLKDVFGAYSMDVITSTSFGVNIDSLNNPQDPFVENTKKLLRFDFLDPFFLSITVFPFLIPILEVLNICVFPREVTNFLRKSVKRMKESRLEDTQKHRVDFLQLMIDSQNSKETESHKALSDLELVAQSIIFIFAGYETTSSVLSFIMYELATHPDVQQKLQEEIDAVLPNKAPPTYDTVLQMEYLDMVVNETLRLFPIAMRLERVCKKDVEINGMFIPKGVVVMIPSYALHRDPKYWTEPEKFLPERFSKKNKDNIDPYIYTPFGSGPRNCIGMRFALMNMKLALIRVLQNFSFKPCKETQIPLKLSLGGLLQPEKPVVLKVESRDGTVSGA
Chain of Cytochrome P450 2C9 (P11712 whole entry): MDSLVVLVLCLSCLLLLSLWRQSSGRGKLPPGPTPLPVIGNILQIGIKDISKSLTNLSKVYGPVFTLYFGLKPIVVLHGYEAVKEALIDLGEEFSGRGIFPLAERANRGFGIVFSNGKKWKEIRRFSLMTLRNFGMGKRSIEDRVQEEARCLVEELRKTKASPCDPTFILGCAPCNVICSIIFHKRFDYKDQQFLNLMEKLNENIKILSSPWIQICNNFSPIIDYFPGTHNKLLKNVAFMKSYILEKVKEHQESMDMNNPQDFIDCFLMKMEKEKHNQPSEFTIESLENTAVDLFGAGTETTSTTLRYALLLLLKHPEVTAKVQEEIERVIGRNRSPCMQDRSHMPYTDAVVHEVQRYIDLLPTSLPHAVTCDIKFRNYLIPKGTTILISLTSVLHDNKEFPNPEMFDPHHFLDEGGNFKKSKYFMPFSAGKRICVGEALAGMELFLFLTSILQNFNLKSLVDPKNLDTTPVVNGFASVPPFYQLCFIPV

What is called IC50 is the midpoint of a concentration-inhibition curve. For the molecule `O=C(O)CCn1c2c(c3ccccc31)C[C@H](NS(=O)(=O)c1ccc(F)cc1)CC2` [RAMATROBAN], the IC50 in series [1] was 0.311 µM; in series [2], 0.754 µM; in series [3], 33.4 µM; on Cytochrome P450 2D6, greater than 30 µM; at Thromboxane A2 receptor it was 0.014 µM; against Cytochrome P450 2C9, 15 µM. Further, the IC50 on Prostacyclin receptor is greater than 100 µM; in the series on Blood, 1.21 µM.

One may read the Cmax as the peak of the concentration-time curve. As to `CN([C@@H]1CCc2c(c3ncccc3n2CC(=O)O)C1)S(=O)(=O)c1ccc(F)cc1`, the concentration in series [4] peaked (Cmax) at 770 nM. Further, the Activity at Cytochrome P450 3A4 [5] was found to be 2.8%. For the same molecule, the result in the series on Mus musculus [6] and in the series with Mus musculus [7] was Active. Also, the concentration for half-maximal inhibition (IC50) was 0.006 µM in series [1]; 0.011 µM in [2]; greater than 100 µM in [3]; greater than 30 µM on Cytochrome P450 3A4 [8]; greater than 30 µM against Cytochrome P450 2D6; greater than 100 µM at Thromboxane A2 receptor. The half-maximal inhibitory concentration (IC50) on Cytochrome P450 2C9 is greater than 30 µM; on Prostacyclin receptor it was greater than 100 µM; in the series on Blood, 0.001 µM. Besides, the concentration at 8 h in series [9] is 120 nM.

On Cytochrome P450 3A4 [5], `CN([C@@H]1CCC2=C(C1)C1C=CC=CC1N2CC(=O)O)S(=O)(=O)c1ccc(F)cc1` (stereo partly specified) had an Activity of 30.8%. The IC50 in series [1] was 0.001 µM; in series [2], 0.004 µM; in series [3] it was 2.2 µM; on Cytochrome P450 3A4 [8] it was greater than 30 µM; against Cytochrome P450 2D6 it was greater than 30 µM; on Thromboxane A2 receptor, greater than 100 µM. For the same molecule, the half-maximal inhibitory concentration (IC50) is 18 µM at Cytochrome P450 2C9, greater than 100 µM at Prostacyclin receptor and 0.001 µM with Blood.

`CN([C@@H]1CCc2c(CC(=O)O)c3ncccc3n2C1)S(=O)(=O)c1ccc(F)cc1` registered an Activity on Cytochrome P450 3A4 [5] of 0.9%. The IC50 in series [1] is 24.9 µM; in series [2] it was 51 µM; in series [3] it was 41.7 µM; on Cytochrome P450 3A4 [8] it was greater than 30 µM; at Cytochrome P450 2D6 it was greater than 30 µM; on Thromboxane A2 receptor it was greater than 100 µM. The IC50 against Cytochrome P450 2C9 was greater than 30 µM; at Prostacyclin receptor it was greater than 100 µM; in the series on Blood, 41.6 µM.

In turn, `CN([C@@H]1CCc2c(c3cccnc3n2CC(=O)O)C1)S(=O)(=O)c1ccc(F)cc1` showed an Activity on Cytochrome P450 3A4 [5] of 2.8%. Moreover, the concentration for half-maximal inhibition (IC50) in [1] is 0.457 µM; in [2] it was 1.34 µM; in series [3], 9 µM; against Cytochrome P450 3A4 [8], greater than 30 µM; at Cytochrome P450 2D6 it was greater than 30 µM; at Thromboxane A2 receptor it was greater than 100 µM. Also, the IC50 was greater than 30 µM at Cytochrome P450 2C9, greater than 100 µM at Prostacyclin receptor and 3.1 µM with Blood.

Regarding `CN(C)c1nc(Cc2ccc(NC(=O)c3ccc(C(F)(F)F)cc3)cc2)nc(N(C)C)c1CC(=O)O` [BI-671800], the Activity at Cytochrome P450 3A4 [5] stood at 0.4%. Besides, the IC50 in series [1] is 0.042 µM; in series [2], 0.744 µM; in series [3], 25.6 µM; against Cytochrome P450 2D6, greater than 30 µM; on Thromboxane A2 receptor, 62.6 µM; at Cytochrome P450 2C9, greater than 30 µM. In addition, the IC50 on Prostacyclin receptor is greater than 100 µM; in the series with Blood, 0.744 µM.

On Cytochrome P450 3A4 [5], `CN([C@@H]1CCc2c(CC(=O)O)c3ccccc3n2C1)S(=O)(=O)c1ccc(F)cc1` [MK-7246] came in with an Activity of 0.7%. Moreover, the IC50 in [1] was 0.006 µM; in [2] it was 0.02 µM; in series [3], 1 µM; against Cytochrome P450 3A4 [8], 7 µM; at Cytochrome P450 2D6, greater than 30 µM; at Thromboxane A2 receptor, greater than 100 µM. Also, the IC50 on Cytochrome P450 2C9 is 5 µM; on Prostacyclin receptor, greater than 100 µM; in the series on Blood it was 0.007 µM.

Take `CN([C@@H]1CCc2c(c3ccccn3c2CC(=O)O)C1)S(=O)(=O)c1ccc(F)cc1`: the IC50 in series [1] was 0.094 µM; in series [2], 0.061 µM; in series [3], 31 µM; at Cytochrome P450 3A4 [8] it was 11 µM; on Cytochrome P450 2D6 it was greater than 30 µM; at Cytochrome P450 2C9, 10 µM. The results for the IC50 on Prostacyclin receptor and in the series on Blood were greater than 100 µM and 0.016 µM, respectively.

On Cytochrome P450 3A4 [5], `CN([C@@H]1CCc2c(CC(=O)O)c3ccccn3c2C1)S(=O)(=O)c1ccc(F)cc1` had an Activity of 0.9%. The IC50 is 0.018 µM in series [1]; 0.046 µM in series [2]; 4.4 µM in [3]; greater than 30 µM at Cytochrome P450 3A4 [8]; greater than 30 µM against Cytochrome P450 2D6; greater than 100 µM on Thromboxane A2 receptor. For the same molecule, the IC50 against Cytochrome P450 2C9 was 17 µM; on Prostacyclin receptor it was greater than 100 µM; in the series with Blood, 0.006 µM.

Take `CN([C@@H]1CCc2c(c3nccnc3n2CC(=O)O)C1)S(=O)(=O)c1ccc(F)cc1`: on Cytochrome P450 3A4 [5], the Activity was found to be 0.9%. Moreover, the IC50 in series [1] is 0.096 µM; in series [2] it was 0.127 µM; in [3], 37.8 µM; at Cytochrome P450 3A4 [8], greater than 30 µM; against Cytochrome P450 2D6, greater than 30 µM; on Thromboxane A2 receptor, greater than 100 µM. Moreover, the figures for the IC50 against Cytochrome P450 2C9, on Prostacyclin receptor and in the series on Blood were 15 µM, greater than 100 µM and 0.14 µM, respectively.

At Cytochrome P450 3A4 [5], `CN([C@@H]1CCc2c(c3ccncc3n2CC(=O)O)C1)S(=O)(=O)c1ccc(F)cc1` had an Activity of 0.4%. In addition, the IC50 was 0.86 µM in series [1]; 0.94 µM in [2]; greater than 100 µM in series [3]; greater than 30 µM against Cytochrome P450 3A4 [8]; greater than 30 µM at Cytochrome P450 2D6; greater than 100 µM at Thromboxane A2 receptor. Moreover, the IC50 is greater than 30 µM at Cytochrome P450 2C9, greater than 100 µM on Prostacyclin receptor and 0.452 µM in the series with Blood.

In turn, `Cc1c(Cc2ccc3ccccc3n2)c2cc(F)ccc2n1CC(=O)O` [TIMAPIPRANT] registered an Activity on Cytochrome P450 3A4 [5] of 58.8%. Also, the 50% inhibitory concentration (IC50) in series [3] is 7.3 µM; against Cytochrome P450 2D6, greater than 30 µM; on Thromboxane A2 receptor it was greater than 100 µM; against Cytochrome P450 2C9, greater than 30 µM; on Prostacyclin receptor, 57.9 µM; with Blood it was 0.261 µM.
